Where a name gives a salt, the structure may show the parent alone.
What was measured:
delta-5-desaturase [1] = target: T1, delta-5-desaturase (Homo sapiens, UniProt O60427); test: Delta-5-desaturase inhibitory activity using HepG2 cell; type: cell-based; conditions: test compound 1 μM
T1 construct: endogenous in cells; host or cells: HepG2
Method: Delta-5-Desaturase Inhibitory Activity Using HepG2 Cell
HepG2 was plated on a 96-well plate at 1×10^5 cells/well, and cultured overnight in DMEM (Dulbecco's modified Eagle medium) containing 10% FBS (fetal bovine serum). After washing (200 μL×2) with PBS (phosphate buffered saline), 40 μL of a reaction medium (DMEM, penicillin/streptomycin, 0.3% BSA) containing the test compound was added, and the mixture was preincubated in a CO2 incubator at 37° C. for 30 min. The reaction was started by adding a reaction medium (20 μL) containing 0.1 μCi [^14C]Eicosatrienoic acid, and the mixture was incubated in a CO2 incubator at 37° C. Incubation was performed for 3 hr, the cells were washed twice with 200 μL of PBS, detached with 50 μL of trypsin-EDTA and placed on a 96-deep well block. Furthermore, 20 μL of 2.5N NaOH was added, the plate was sealed and incubated overnight at 55° C. to allow saponification. The fatty acid extraction included acidifying with 10 μL of formic acid, adding chloroform:methanol (1:4), stirring, and further adding 200 μL of pure water to separate into two layers. The operation after development with TLC followed the method of detection system using TLC in a system using a rat liver microsome. A delta-5-desaturase inhibitory rate (%) of 1 μM test compound was determined.

delta-5-desaturase [2] = target: T2, delta-5-desaturase (Rattus norvegicus, UniProt Q920R3); test: Inhibitory activity on binding of [3H]-labelled Reference Example 1 ligand to delta-5-desaturase (rat liver microsome fraction); conditions: test compound 10 μM; for inhibition at 10 µM: 3 nM tritiated ligand of Reference Example 1, read-out: Binding inhibitory activity against compound bind to delta-5-desaturase Binding inhibition rate (%) at 10 μM
T2 construct: a rat liver microsome fraction (10 μl) diluted to 3 mg/ml with a microsome buffer; from tissue; host or cells: rat liver microsome fraction
Method: Inhibitory Activity on Binding of N-[2-({4-oxo-3-[4-(2,2,2-trifluoroethoxy)[2,6-^3H2]phenyl]-3,4-dihydrothieno[3,4-d]pyrimidin-2-yl}sulfanyl)ethyl]acetamide (Reference Example 1) to delta-5-desaturase)
All tests were performed at room temperature at 200 μL/well. A rat liver microsome fraction (30 μg/well) was preincubated with a test compound at a final concentration of 10 μM for 15 min in an assay buffer (10 mM Tris-HCl (pH 7.5), 100 mM KCl, 10 mM NaF, 3 mM MgCl2, 0.005% Tween20 and 1 mM GSH). N-[2-({4-oxo-3-[4-(2,2,2-trifluoroethoxy) [2,6-^3H2]phenyl]-3,4-dihydrothieno[3,4-d]pyrimidin-2-yl}sulfanyl)ethyl]acetamide was added to a final concentration of 3 nM and the mixture was incubated for 150 min. For Bound/Free separation, the membrane fraction was added on a GF/C glass filter using a cell harvester. The GF/C glass filter was washed 5 times with 300 μl of ice-cooled assay buffer (without 0.005% Tween) to separate the ligand bound to delta-5-desaturase. 50 μl of MicroScinti 0 was added, and the radioactivity on the filter was measured by TopCount. To evaluate non-specific binding, 10 μM N-[2-({4-oxo-3-[4-(2,2,2-trifluoroethoxy)phenyl]-3,4-dihydrothieno[3,4-d]pyrimidin-2-yl}sulfanyl)ethyl]acetamide was used. The inhibitory rate (%) of the test compound (10 μM) on the binding of N-[2-({4-oxo-3-[4-(2,2,2-trifluoroethoxy) [2,6-^3H2]phenyl]-3,4-dihydrothieno[3,4-d]pyrimidin-2-yl}sulfanyl)ethyl]acetamide to delta-5-desaturase was determined.

delta-5-desaturase [3] = target: T2, delta-5-desaturase; test: Delta-5-desaturase inhibitory activity using rat liver microsome; type: biochemical; conditions: test compound 10 μM
Method: Delta-5-Desaturase Inhibitory Activity Using Rat Liver Microsome
The inhibitory activity of the test compound on delta-5-desaturase was measured by the method described below. To a solution of the test compound in DMSO prepared in advance was secondarily diluted with a buffer (300 mM NaH2PO4 [pH 7.4], 450 mM KCl, 30 mM NaF, 9 mM MgCl2, 4.5 mM glutathione [reduced form], 0.3% BSA [fatty acid free, SIGMA]) to give an assay buffer. The assay buffer (10 μl) was dispensed to a polypropylene deep 96-well block, and a rat liver microsome fraction (10 μl) diluted to 3 mg/ml with a microsome buffer (10 mM Tris-HCl [pH 7.4], 1 mM EDTA, 250 mM sucrose) was added. The enzyme reaction was started by adding 9 mM NADH, 9 mM ATP, 0.9 mM CoA, 10 μCi/ml (8E,11E,14E)-(1-^14C)eicosa-8,11,14-trienoic acid (PerkinElmer Inc.) (10 μl). The enzyme reaction was performed for 120 min at room temperature, and discontinued by the addition of 10 μl of 2.5M NaOH. After discontinuation of the reaction, the plate was sealed and incubated overnight at 55° C. to allow saponification. The fatty acid was extracted with solvent based on the Bligh & Dyer method described in Can. J. Biochem. Physiol., vol. 37, page 911 (1959) by adding formic acid:methanol:chloroform (1:6:3) (200 μl), maintaining the single layer state, sufficiently stirring the mixture and adding pure water (120 μl) for separation into two layers. The lower chloroform layer (10 μl) was spotted on a reversed-phase TLC plate (RP-18, 1154230001, Merck Japan, Ltd.), developed with acetonitrile:pure water:acetic acid (95:4.5:0.5), and the dried TLC plate was transcribed on Imaging Plate (Fuji Photo Film Co., Ltd.) for 5 hr or longer. The detection was performed using BAS-5000 (Fuji Photo Film Co., Ltd.), and the obtained spot image was numerically converted by Multi Gauge Ver2.3 (Fuji Photo Film Co., Ltd.) and a delta-5-desaturase inhibitory rate (%) of 10 μM test compound was determined.

delta-5-desaturase [4] = target: T3, delta-5-desaturase (Mus musculus, UniProt Q920L1); test: Delta-5-desaturase inhibitory action in vivo (liver AA/DGLA ratio in mice); conditions: 3 mg/kg by gavage for 4 days; male C57BL/6J mice; liver phospholipid fraction; solvent administration group as 100%
T3 construct: the mice were anesthetized, and the liver was isolated; tissue CLEA Japan, Inc; host or cells: liver of C57BL/6J mice (in vivo dosing)
T3 sequence (Q920L1 1-447): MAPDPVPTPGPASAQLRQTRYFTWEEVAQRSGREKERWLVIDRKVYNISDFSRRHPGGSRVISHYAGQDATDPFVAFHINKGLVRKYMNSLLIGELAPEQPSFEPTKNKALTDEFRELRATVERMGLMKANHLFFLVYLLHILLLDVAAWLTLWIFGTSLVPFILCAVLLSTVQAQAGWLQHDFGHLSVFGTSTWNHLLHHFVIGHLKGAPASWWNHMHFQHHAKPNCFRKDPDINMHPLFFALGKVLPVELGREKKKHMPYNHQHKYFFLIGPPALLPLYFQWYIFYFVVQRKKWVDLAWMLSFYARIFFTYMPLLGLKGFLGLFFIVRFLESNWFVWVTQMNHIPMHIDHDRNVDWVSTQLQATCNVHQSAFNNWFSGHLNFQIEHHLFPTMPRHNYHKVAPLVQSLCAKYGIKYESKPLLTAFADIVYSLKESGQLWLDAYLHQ
Method: Delta-5-Desaturase Inhibitory Action In Vivo
The delta-5-desaturase inhibitory action of the test compound in vivo was evaluated by the following method. A suspension of a test compound (3 mg/kg) in 0.5% methylcellulose was administered by gavage every morning at 10 mL/kg for 4 days to 7- to 9-week-old male normal mice (C57BL/6J, CLEA Japan, Inc.) acclimated with a normal chow feed (CE-2, CLEA Japan, Inc.) in individual cages. In the next morning of the final administration, the mice were anesthetized, and the liver was isolated. Total lipid was extracted from about 40 mg of a liver sample with hexane-propanol solution, and a phospholipid fraction was extracted using a solid phase extraction column (Sep-Pak Vac NH2, Waters) and labeled with an esterified long-chain and short-chain fatty acid labeling reagent (YMC). The arachidonic acid and dihomo-γ-linolenic acid contents of the sample after labeling were measured by high performance liquid chromatography (Agilent 1200, Agilent Technologies). The arachidonic acid (AA) content was divided by the content of dihomo-γ-linolenic acid (DGLA) to obtain an AA/DGLA ratio. The decrease rate of the test compound administration group was calculated based on the AA/DGLA ratio of the solvent administration group as 100%, which was used as an index of the liver delta-5-desaturase inhibitory action in vivo.

T2 sequence (Q920R3 whole entry): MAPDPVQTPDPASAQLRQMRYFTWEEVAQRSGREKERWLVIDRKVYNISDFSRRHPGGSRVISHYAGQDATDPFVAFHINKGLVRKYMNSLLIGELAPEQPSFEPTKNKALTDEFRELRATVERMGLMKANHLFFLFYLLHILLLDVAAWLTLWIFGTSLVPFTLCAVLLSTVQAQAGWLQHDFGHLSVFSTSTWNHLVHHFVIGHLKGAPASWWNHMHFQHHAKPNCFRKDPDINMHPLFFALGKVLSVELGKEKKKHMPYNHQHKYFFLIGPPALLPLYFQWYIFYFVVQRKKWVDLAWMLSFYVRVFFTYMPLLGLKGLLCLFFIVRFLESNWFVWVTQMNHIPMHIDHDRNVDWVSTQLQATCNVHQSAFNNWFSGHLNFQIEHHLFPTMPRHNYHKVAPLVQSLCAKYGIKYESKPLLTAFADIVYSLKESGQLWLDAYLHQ
T1 sequence (O60427 whole entry): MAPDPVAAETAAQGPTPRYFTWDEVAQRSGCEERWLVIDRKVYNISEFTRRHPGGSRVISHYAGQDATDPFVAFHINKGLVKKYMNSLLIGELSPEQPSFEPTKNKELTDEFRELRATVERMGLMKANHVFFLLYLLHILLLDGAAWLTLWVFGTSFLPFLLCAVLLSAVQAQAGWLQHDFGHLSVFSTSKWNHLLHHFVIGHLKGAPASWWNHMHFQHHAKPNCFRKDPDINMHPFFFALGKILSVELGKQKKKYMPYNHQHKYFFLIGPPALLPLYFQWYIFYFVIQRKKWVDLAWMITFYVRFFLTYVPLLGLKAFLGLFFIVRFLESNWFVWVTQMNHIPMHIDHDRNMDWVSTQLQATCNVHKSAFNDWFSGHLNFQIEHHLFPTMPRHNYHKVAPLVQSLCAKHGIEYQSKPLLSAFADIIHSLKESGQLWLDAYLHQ

inhibition at 1 µM (delta-5-desaturase [1]) [%] | inhibition at 10 µM (delta-5-desaturase [2]) [%] | inhibition at 10 µM (delta-5-desaturase [3]) [%] | lowering rate (%) of arachidonic acid/dihomo-γ-linolenic acid ratio (delta-5-desaturase [4]) [%] | Binding inhibitory activity against compound bind to delta-5-desaturase Binding inhibition rate (%) at 10 μM (delta-5-desaturase [2]; 3 nM tritiated ligand of Reference Example 1, sodium salt) [%] | delta-5-desaturase inhibitory activity (at liver microsome) Inhibitory activity (%) at 10 μM (delta-5-desaturase [3]; sodium salt, 10 µM) [%] | SMILES
101 | 94 | 100 | 73 | – | – | CCSc1nc2nc(OC)ccc2c(=O)n1-c1ccc(OCC(F)(F)F)cc1 [Example 1, 2-(ethylsulfanyl)-7-methoxy-3-[4-(2,2,2-trifluoroethoxy)phenyl]pyrido[2,3-d]pyrimidin-4(3H)-one]
96 | 99 | 102 | 64 | – | – | CCOc1nc2nc(OC)ccc2c(=O)n1-c1ccc(OCC(F)(F)F)cc1 [Example 4, 2-ethoxy-7-methoxy-3-[4-(2,2,2-trifluoroethoxy)phenyl]pyrido[2,3-d]pyrimidin-4(3H)-one]
102 | 96 | 101 | 69 | – | – | O=c1ccc2c(=O)n(-c3ccc(OCC(F)(F)F)cc3)c(OCC(F)F)nc2[nH]1 [Example 16, 2-(2,2-difluoroethoxy)-3-[4-(2,2,2-trifluoroethoxy)phenyl]pyrido[2,3-d]pyrimidine-4,7(3H,8H)-dione]

Further lines, the compound ahead of its results:

SMILES | inhibition at 1 µM (delta-5-desaturase [1]) [%] | inhibition at 10 µM (delta-5-desaturase [2]) [%] | inhibition at 10 µM (delta-5-desaturase [3]) [%] | lowering rate (%) of arachidonic acid/dihomo-γ-linolenic acid ratio (delta-5-desaturase [4]) [%] | Binding inhibitory activity against compound bind to delta-5-desaturase Binding inhibition rate (%) at 10 μM (delta-5-desaturase [2]; 3 nM tritiated ligand of Reference Example 1, sodium salt) [%] | delta-5-desaturase inhibitory activity (at liver microsome) Inhibitory activity (%) at 10 μM (delta-5-desaturase [3]; sodium salt, 10 µM) [%]
O=c1ccc2c(=O)n(-c3ccc(OCC(F)(F)F)cc3)c(OCC(F)(F)F)nc2[nH]1 [Example 12, 2-(2,2,2-trifluoroethoxy)-3-[4-(2,2,2-trifluoroethoxy)phenyl]pyrido[2,3-d]pyrimidine-4,7(3H,8H)-dione sodium salt] | – | – | – | 70 | 96 | 99
O=c1ccc2c(=O)n(-c3ccc(OCC(F)(F)F)cc3)c(OC3CCC(F)(F)CC3)nc2[nH]1 [Example 15, 2-[(4,4-difluorocyclohexyl)oxy]-3-[4-(2,2,2-trifluoroethoxy)phenyl]pyrido[2,3-d]pyrimidine-4,7(3H,8H)-dione] | 102 | 99 | 104 | 69 | – | –
O=C1CCc2c(nc(OCC(F)(F)F)n(-c3ccc(OCC(F)(F)F)cc3)c2=O)N1 [Example 22, 2-(2,2,2-trifluoroethoxy)-3-[4-(2,2,2-trifluoroethoxy)phenyl]-5,6-dihydropyrido[2,3-d]pyrimidine-4,7(3H,8H)-dione] | 101 | 92 | 100 | 68 | – | –
CCOc1nc2c(c(=O)n1-c1ccc(OCC(F)(F)F)cc1)CCC(=O)N2 [Example 23, 2-ethoxy-3-[4-(2,2,2-trifluoroethoxy)phenyl]-5,6-dihydropyrido[2,3-d]pyrimidine-4,7(3H,8H)-dione] | 93 | 91 | 96 | 67 | – | –
O=C1CCc2c(nc(CCC(F)(F)F)n(-c3ccc(OCC(F)(F)F)cc3)c2=O)N1 [Example 39, 3-[4-(2,2,2-trifluoroethoxy)phenyl]-2-(3,3,3-trifluoropropyl)-5,6-dihydropyrido[2,3-d]pyrimidine-4,7(3H,8H)-dione] | 98 | 91 | – | 67 | – | –

Source: patent publication US9023858B2, “Substituted pyrido[2,3-d]pyrimidines as delta-5-desaturase inhibitors” (Takeda Pharmaceutical Company Limited, priority 2010, dated 2015)
